Assay results reported in PubChem BioAssay (NCI).
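Following 48 hours of exposure in 96-well plates, responses at five concentrations were used to interpolate endpoints linearly. TGI marks complete inhibition of growth.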

Legend:
Test in all cases: NCI-60 cell line screen, 48 h
786-0 renal = test system: 786-0 renal
A498 renal = test system: A498 renal
A549 NSCLC = test system: A549 NSCLC
ACHN renal = test system: ACHN renal
BT-549 breast = test system: BT-549 breast
CAKI-1 renal = test system: CAKI-1 renal
CCRF-CEM leukemia = test system: CCRF-CEM leukemia
COLO 205 colon = test system: COLO 205 colon
DU-145 prostate = test system: DU-145 prostate
EKVX NSCLC = test system: EKVX NSCLC
HCC-2998 colon = test system: HCC-2998 colon
HCT-116 colon = test system: HCT-116 colon
HCT-15 colon = test system: HCT-15 colon
HL-60(TB) leukemia = test system: HL-60(TB) leukemia
HOP-62 NSCLC = test system: HOP-62 NSCLC
HOP-92 NSCLC = test system: HOP-92 NSCLC
HS 578T breast = test system: HS 578T breast
HT29 colon = test system: HT29 colon
IGROV1 ovarian = test system: IGROV1 ovarian
K-562 leukemia = test system: K-562 leukemia
KM12 colon = test system: KM12 colon
LOX IMVI melanoma = test system: LOX IMVI melanoma
M14 melanoma = test system: M14 melanoma
MALME-3M melanoma = test system: MALME-3M melanoma
MCF7 breast = test system: MCF7 breast
MDA-MB-231 breast = test system: MDA-MB-231 breast
MDA-MB-435 = test system: MDA-MB-435
MDA-N = test system: MDA-N
MOLT-4 leukemia = test system: MOLT-4 leukemia
NCI-H226 lung = test system: NCI-H226 lung
NCI-H23 lung = test system: NCI-H23 lung
NCI-H460 lung = test system: NCI-H460 lung
NCI-H522 lung = test system: NCI-H522 lung
NCI/ADR-RES ovarian = test system: NCI/ADR-RES ovarian
OVCAR-3 ovarian = test system: OVCAR-3 ovarian
OVCAR-4 ovarian = test system: OVCAR-4 ovarian
OVCAR-5 ovarian = test system: OVCAR-5 ovarian
OVCAR-8 ovarian = test system: OVCAR-8 ovarian
PC-3 prostate = test system: PC-3 prostate
RPMI-8226 leukemia = test system: RPMI-8226 leukemia
RXF 393 renal = test system: RXF 393 renal
SF-268 CNS = test system: SF-268 CNS
SF-295 CNS = test system: SF-295 CNS
SF-539 CNS = test system: SF-539 CNS
SK-MEL-2 melanoma = test system: SK-MEL-2 melanoma
SK-MEL-28 melanoma = test system: SK-MEL-28 melanoma
SK-MEL-5 melanoma = test system: SK-MEL-5 melanoma
SK-OV-3 ovarian = test system: SK-OV-3 ovarian
SN12C renal = test system: SN12C renal
SNB-19 CNS = test system: SNB-19 CNS
SNB-75 CNS = test system: SNB-75 CNS
SR leukemia = test system: SR leukemia
SW-620 colon = test system: SW-620 colon
T-47D breast = test system: T-47D breast
TK-10 renal = test system: TK-10 renal
U251 CNS = test system: U251 CNS
UACC-257 melanoma = test system: UACC-257 melanoma
UACC-62 melanoma = test system: UACC-62 melanoma
UO-31 renal = test system: UO-31 renal

Work on `C=C(CC[C@@H](C)[C@H]1CC[C@H]2[C@@H]3C[C@@H](O)[C@H]4C[C@@H](O)CC[C@]4(CO)[C@H]3CC[C@]12C)C(C)C` yielded a TGI (786-0 renal) of 11.1 µM, a TGI (A498 renal) of 13.3 µM and a TGI (A549 NSCLC) of 11.1 µM. For the same compound, the TGI (ACHN renal) was 12 µM, the TGI (BT-549 breast) was 15 µM and the TGI (CAKI-1 renal) was 11.8 µM. The TGI (CCRF-CEM leukemia) was 10.5 µM, the TGI (COLO 205 colon) was 15.8 µM and the TGI (DU-145 prostate) was 10 µM. For the same compound, the TGI (EKVX NSCLC) was 4.34 µM, the TGI (HCC-2998 colon) was 6.33 µM and the TGI (HCT-116 colon) was 8.91 µM. The TGI (HCT-15 colon) was 8.27 µM, the TGI (HL-60(TB) leukemia) was 14.9 µM and the TGI (HOP-62 NSCLC) was 14.8 µM. It also gave a TGI (HOP-92 NSCLC) of 15.5 µM, a TGI (HS 578T breast) of 12.4 µM and a TGI (HT29 colon) of 7.91 µM. The TGI (IGROV1 ovarian) was 12.6 µM, the TGI (K-562 leukemia) was 6.92 µM and the TGI (KM12 colon) was 8.01 µM. It also gave a TGI (LOX IMVI melanoma) of 9 µM, a TGI (M14 melanoma) of 14.7 µM and a TGI (MALME-3M melanoma) of 12.8 µM. It also gave a TGI (MCF7 breast) of 9.53 µM, a TGI (MDA-MB-231 breast) of 10.4 µM and a TGI (MDA-MB-435) of 14.2 µM. The TGI (MDA-N) was 15.6 µM, the TGI (MOLT-4 leukemia) was 10.8 µM and the TGI (NCI-H226 lung) was 18.4 µM. The TGI (NCI-H23 lung) was 12 µM, the TGI (NCI-H460 lung) was 7.14 µM and the TGI (NCI-H522 lung) was 11.1 µM. For the same compound, the TGI (NCI/ADR-RES ovarian) was 12.2 µM, the TGI (OVCAR-3 ovarian) was 8.77 µM and the TGI (OVCAR-4 ovarian) was 13.4 µM. It also gave a TGI (OVCAR-5 ovarian) of 13.3 µM, a TGI (OVCAR-8 ovarian) of 12.5 µM and a TGI (PC-3 prostate) of 10.8 µM. The TGI (RPMI-8226 leukemia) was 11.6 µM, the TGI (RXF 393 renal) was 8.42 µM and the TGI (SF-268 CNS) was 12.6 µM. For the same compound, the TGI (SF-295 CNS) was 17.1 µM, the TGI (SF-539 CNS) was 20.6 µM and the TGI (SK-MEL-2 melanoma) was 13.9 µM. It also gave a TGI (SK-MEL-28 melanoma) of 10.3 µM, a TGI (SK-MEL-5 melanoma) of 15.9 µM and a TGI (SK-OV-3 ovarian) of 16.3 µM. It also gave a TGI (SN12C renal) of 12.6 µM, a TGI (SNB-19 CNS) of 15.3 µM and a TGI (SNB-75 CNS) of 15.1 µM. The TGI (SR leukemia) was 9.77 µM, the TGI (SW-620 colon) was 16.5 µM and the TGI (T-47D breast) was 8.47 µM. The TGI (TK-10 renal) was 5.47 µM, the TGI (U251 CNS) was 13 µM and the TGI (UACC-257 melanoma) was 14.8 µM. It also gave a TGI (UACC-62 melanoma) of 15 µM and a TGI (UO-31 renal) of 11.1 µM.
For `O=P(Nc1ccccc1)(Oc1ccccc1)N1CCN(c2ccccc2)CC1` (stereo not drawn), the TGI (786-0 renal) was 53.6 µM, the TGI (A498 renal) was 35.6 µM and the TGI (A549 NSCLC) was 38.5 µM. It also gave a TGI (ACHN renal) of 53.9 µM, a TGI (BT-549 breast) of 29.5 µM and a TGI (CAKI-1 renal) of 58.3 µM. The TGI (CCRF-CEM leukemia) was > 100 µM, the TGI (COLO 205 colon) was 34.9 µM and the TGI (DU-145 prostate) was 49.4 µM. It also gave a TGI (EKVX NSCLC) of 51.1 µM, a TGI (HCC-2998 colon) of 29.9 µM and a TGI (HCT-116 colon) of 32.8 µM. For the same compound, the TGI (HCT-15 colon) was 35 µM, the TGI (HL-60(TB) leukemia) was > 100 µM and the TGI (HOP-62 NSCLC) was 32.3 µM. For the same compound, the TGI (HOP-92 NSCLC) was 33.9 µM, the TGI (HS 578T breast) was 40.5 µM and the TGI (HT29 colon) was 29.3 µM. The TGI (IGROV1 ovarian) was 40.4 µM, the TGI (K-562 leukemia) was > 100 µM and the TGI (KM12 colon) was 33.5 µM. For the same compound, the TGI (LOX IMVI melanoma) was 33.5 µM, the TGI (M14 melanoma) was 28.6 µM and the TGI (MALME-3M melanoma) was 33.4 µM. It also gave a TGI (MCF7 breast) of 32.1 µM, a TGI (MDA-MB-231 breast) of 28.9 µM and a TGI (MDA-MB-435) of 51.5 µM. For the same compound, the TGI (MDA-N) was 31.6 µM, the TGI (MOLT-4 leukemia) was 52.6 µM and the TGI (NCI-H226 lung) was 43.9 µM. For the same compound, the TGI (NCI-H23 lung) was 36.9 µM, the TGI (NCI-H460 lung) was 33.3 µM and the TGI (NCI-H522 lung) was 19.7 µM. The TGI (NCI/ADR-RES ovarian) was 39 µM, the TGI (OVCAR-3 ovarian) was 39.7 µM and the TGI (OVCAR-4 ovarian) was 62.5 µM. The TGI (OVCAR-5 ovarian) was 33.5 µM, the TGI (OVCAR-8 ovarian) was 49.8 µM and the TGI (PC-3 prostate) was 51.7 µM. The TGI (RPMI-8226 leukemia) was > 100 µM, the TGI (RXF 393 renal) was 33.9 µM and the TGI (SF-268 CNS) was 84.1 µM. For the same compound, the TGI (SF-295 CNS) was 33.6 µM, the TGI (SF-539 CNS) was 33.9 µM and the TGI (SK-MEL-2 melanoma) was 35.7 µM. For the same compound, the TGI (SK-MEL-28 melanoma) was 35.2 µM, the TGI (SK-MEL-5 melanoma) was 33.5 µM and the TGI (SK-OV-3 ovarian) was 33.3 µM. For the same compound, the TGI (SN12C renal) was 36 µM, the TGI (SNB-19 CNS) was 32.1 µM and the TGI (SNB-75 CNS) was 30.4 µM. For the same compound, the TGI (SR leukemia) was > 100 µM, the TGI (SW-620 colon) was 63.6 µM and the TGI (T-47D breast) was 58.5 µM. It also gave a TGI (TK-10 renal) of 52.2 µM, a TGI (U251 CNS) of 30.8 µM and a TGI (UACC-257 melanoma) of 36.7 µM. The TGI (UACC-62 melanoma) was 25.8 µM and the TGI (UO-31 renal) was 31 µM.
